The text below walks through data of a melting point compilation (Tetko et al.; mined from patent text by program, amines drawn as free bases though some values may be those of a salt).

Molecule `CNC(=O)ON=C1N=C(c2ccc(Cl)cc2)C(C)(C)S1` had a melting point of 147 to 149 °C.
The molecule `CSc1cc(C#N)c(Oc2ccc(Cl)c(Cl)c2)cn1` registered a melting point of 96 to 97 °C.
The molecule `COC(=O)c1ccc(S(C)(=O)=O)c(-c2cc(C(C)C)no2)c1` displayed a melting point of 102 to 104 °C.
Take `CCn1cc(C(=O)NCc2ccc(Cl)cc2)c(=O)c2cc(CCl)oc21`: the melting point was in the range of 192 to 193 °C.
Consider `CC(C)Cn1c(CNC(=O)OC(C)(C)C)c(-c2ccccc2)c2cc(O)ccc2c1=O`, for which the melting point is 218 to 219 °C.
With `CC(C)(C)c1ccnc(C(=O)c2[nH]c3ccc(Cl)cc3c2CC(=O)O)c1`, the melting point was 209 to 211 °C.
`COc1cc2c(c(OC)c1/C=C/c1ccc(CN)cc1)C(C)(C)CCC2(C)C` yielded a melting point of 59 to 60 °C.
For `CCCN1CC(c2ccc(F)cc2)=C(c2ccc(S(C)(=O)=O)cc2)C1=O` the value was 150 to 152 °C.
As for `O=c1ccc2nc3ccccc3sc-2c1Cl`, the melting point was found to be 221 °C.
For `Cn1c(COc2ccc(CC3SC(=O)NC3=O)cc2)nc2ccc(Oc3ccc(NC(=O)c4cccc(Cl)c4)cc3)cc21` (configuration not stated), the melting point lay in the range of 238 to 239 °C.
Molecule `COc1ccc(-c2cc(C)c(N)c(C=O)c2)cn1` had a melting point of 81 to 84 °C.
As to `COC(=O)C1CCN(S(=O)(=O)c2ccc(Cl)c(COc3cccc4c(-n5ccnc5)cc(C)nc34)c2Cl)C1` (configuration not stated), the melting point was found to be 180 °C.
As for `O=C1c2ccccc2-c2[nH]c(=O)c(=O)[nH]c21`, the melting point lay within 243 to 253 °C.
In turn, `O=C(Nc1ccc(F)cc1F)c1cc(-c2ccc(F)cc2F)ccc1O` registered a melting point of 233 to 234 °C.
Molecule `COc1cc(COc2nn(-c3ccccc3)cc2C=O)ccc1OCc1cn(-c2ccccn2)nc1C` yielded a melting point of 179 to 180 °C.
`Cc1nc(/C=C/c2ccccc2)no1` displayed a melting point of 166 to 168 °C.
On to `CS(=O)(=O)NC(=O)c1cccc(N)c1`, for which the melting point is 153 to 155 °C.
As for `CCCOc1cc2c(=O)c3ccccc3sc2cc1Cl`, the melting point fell in the range of 101 to 102 °C.
`CC(C)OC1=NC(=O)N(C(C)C)S(=O)(=O)N1` showed a melting point of 164 to 167 °C.
Molecule `c1ccc2c(c1)c(-c1cc3nccnc3[nH]1)cn2CCCN1CCOCC1` gave a melting point of 180 to 185 °C.
For `COC(=O)c1ccc(C2=N[C@H]3CCCC[C@H]3c3cc(OC)c(OC)cc32)cc1` (racemic), the melting point worked out at 122 °C.
Take `CC(C)(C)OC(=O)Nc1ccc(C#Cc2ccc(F)cc2)cc1NC(=O)CC(=O)c1cccc(-n2cncn2)c1`: the melting point is 131 to 139 °C.
The molecule `CCCCCCCCCCCCCCCC(=O)OCC1OC(n2cc(C)c(=O)[nH]c2=O)CC1F` (configuration not stated) had a melting point of 65 to 66 °C.
As for `O=C1c2ccc(-c3cccnc3)cc2CC1Cl` (configuration not stated), the melting point lay within 103 to 105 °C.
For the molecule `N#Cc1cc([N+](=O)[O-])ccc1OCC(F)(F)F`, the melting point came to 94 °C.
`CSc1cc(C)c2ccc(N)nc2n1` gave a melting point of 204 to 209 °C.
As to `O=C(O)C(=O)CC(=O)c1cccn1Cc1cc(F)c(F)cc1F`, the melting point is 154 to 156 °C.
Turning to `COc1cc(OC)c2c(=O)[nH]c(-c3cc(C)c(OCC(=O)O)c(C)c3)nc2c1`, the melting point lay in the range of 270 to 272 °C.
The molecule `C#CCN(Cc1cc2c(=O)[nH]c(COS(C)(=O)=O)nc2cc1Cl)c1ccc(C(=O)OC(C)(C)C)cc1` registered a melting point of 178 to 181 °C.
The molecule `CCN1Cc2cccc3scc(c23)S1(=O)=O` registered a melting point of 156 °C.
`O=C(O)C1=CC(CF)(CF)Oc2ccc(C(F)(F)C(F)(F)F)cc21` came in with a melting point of 173 to 174 °C.
As for `Cc1cc2n(n1)-c1ccc(Cl)cc1C(c1ccccc1)NC2=O` (configuration not stated), the melting point was in the range of 258 to 261 °C.
For `Cc1cccc(C(=O)NO)c1N(C)S(=O)(=O)c1ccc(OCCCCNC(=O)c2ccc3c(c2)OCO3)cc1` the value was 117 to 121 °C.
In the case of `NS(=O)(=O)c1cccc(C(=O)Nc2ccc(-n3nc(C(F)(F)F)cc3C(F)(F)F)cc2)c1`, the melting point was 177 to 178 °C.
For `Nc1ccn(C[C@@H]2O[C@H](CO)[C@@H](O)[C@@H]2O)c(=O)n1` the value was 230 to 232 °C; for `CC(C)(COc1ccc(Cl)cc1)C(=O)COc1ccc(Cl)cc1`, 76 to 77 °C; for `CC(=O)OC1CSC(Oc2cccc(-c3nccs3)c2)C(OC(C)=O)C1OC(C)=O` (configuration not stated), 65 °C.
`Clc1ccc(C(c2ccccc2)(c2ccccc2)n2ccnc2)cc1` yielded a melting point of 125 °C.
In the case of `CCC(C)n1cc(Cl)nc(N2CCc3cc(Br)cc(Cl)c32)c1=O` (configuration not stated), the melting point amounted to 150 °C.
The molecule `O=C(O)COc1cc(O)c2c(c1)NC1(CCCCC1)CC2=O` had a melting point of 177 to 178 °C.
For `CC1(C)CCc2c(N3CCOCC3)nc3sc4c(NCc5ccncc5)ncnc4c3c2C1`, the melting point was 240 to 241 °C.
With `CC(=O)CC(=O)c1ccc(C)nc1`, the melting point fell in the range of 57 to 58 °C.
With `Cc1oc(-c2ccccc2)nc1COc1cccc(C=CC=Cc2nnn[nH]2)c1`, the melting point was in the range of 201 to 202 °C.
Turning to `CCOC(=O)C1=C(C)NC(=S)N(S(C)(=O)=O)C1c1cccc([N+](=O)[O-])c1` (configuration not stated), the melting point fell in the range of 161 to 163 °C.
Molecule `Oc1ccc(Br)cc1C(O)c1ccc2ccccc2c1` (configuration not stated) displayed a melting point of 115 to 117 °C.
For `O=c1ccc(C(F)(F)F)cn1-c1ccc([N+](=O)[O-])cc1Cl` the value was 218 °C.
The molecule `CCCCc1ncc(/C(C)=C(\Cc2ccccc2)C(=O)O)n1Cc1ccccc1Cl` yielded a melting point of 206 to 207 °C.
The figure for `CCCCCCCCCCCCCCCCn1cccc1C1=CC(=O)c2ccccc2C1=O` is 56 to 57 °C; for `CCN(CC)CCC(=O)Nc1ccc2c(=O)c3ccc(NC(=O)CCN(CC)CC)cc3[nH]c2c1` it is over 320 °C; for `CC(C)(C)OC(=O)C(F)=CC1C(C(=O)OC(C#N)c2ccc(F)c(Oc3ccccc3)c2)C1(C)C` (configuration not stated) it is 122 °C.
`CCOC(=O)c1ncn(Cc2ccc(Cl)c(Cl)c2)c1C(=O)OCC` returned a melting point of 105 to 107 °C.
The molecule `CC(O)(c1ccc(F)cc1)c1ccc(-c2ccncc2)cc1` (configuration not stated) registered a melting point of 166 to 170 °C.
`CN1CCN(S(=O)(=O)c2cccc(NC(=O)c3cnn4c(C(F)(F)F)cc(-c5ccc(Cl)cc5)nc34)c2)CC1` gave a melting point of 195 °C.
The molecule `Cc1cccc(-c2nc3ccc(O)cc3n2Cc2ccccc2C(F)(F)F)c1` had a melting point of 233 °C.
Molecule `COc1ccc2c(c1)c(CC(=O)O)c(C)n2C(=O)c1ccc(Cl)c(Cl)c1` registered a melting point of 95 to 97 °C.
`N#CC(=Cc1ccc2[nH]ccc2c1)C(=O)c1ccc(O)c(O)c1` displayed a melting point of 185 °C.
As to `COc1ccccc1I`, the melting point is 44.5 to 46.5 °C.
Regarding `CN(C(CCn1c(=O)cc(Cl)[nH]c1=O)C(=O)NO)S(=O)(=O)c1ccc(Oc2ccncc2)cc1` (configuration not stated), the melting point was in the range of 163 to 165 °C.
In the case of `Clc1cccnc1-c1cc(OCCc2ccccn2)c2[nH]nc(Nc3nccs3)c2c1`, the melting point lay in the range of 185 to 187 °C.
Consider `COC(=O)c1cccc(Oc2ccc([N+](=O)[O-])cc2C(=O)OC)c1`, for which the melting point was 97 to 99 °C.
`O=C(c1ccc(OCCN2CCCC2)cc1)c1c(-c2ccc(Cl)cc2)sc2ccccc12`: the melting point was 97 to 98 °C.
Molecule `O=P1(c2cccc(F)c2)c2ccccc2CN1c1ccccc1` (configuration not stated) registered a melting point of 209 to 210 °C.
`N#Cc1ncn2c(C(F)(F)F)cc(-c3cccnc3)nc12` displayed a melting point of 222 °C.
On to `COc1cc(-c2ccccc2C)cc2oc(=O)c(C)c(C)c12`, for which the melting point was determined as 145 °C.
With `COc1ccc(CSc2ccc(S(=O)(=O)N=CN(C)C)s2)cc1`, the melting point fell in the range of 92 to 101 °C.
In turn, `CC1C(=O)NC(c2ccc(NC(=O)CCl)cc2)c2ccccc21` (configuration not stated) returned a melting point of 238 to 239 °C.
Regarding `O=c1[nH]c(=O)n(Cc2ccc(OCCCCCCCCCOc3ccc(Cn4oc(=O)[nH]c4=O)cc3)cc2)o1`, the melting point was 149 to 151 °C.
`C=CCN1C(=O)CC(=O)N(c2ccccc2)c2cc(Cl)ccc21` had a melting point of 199 to 201 °C.
The molecule `C#CCOc1ccc2c(c1)c(-c1ccc(C(C)C)cc1)nc(=O)n2Cc1cccc([N+](=O)[O-])c1` came in with a melting point of 167 to 168 °C.
The figure for `Cc1cnnc2c1C(=O)CC(c1cc(Cl)ccc1F)C2` (configuration not stated) is 124 to 125 °C.
The figure for `COC(=O)C1=C(C)NC(C)=C(C(=O)OCC(O)CO)C1c1cccc([N+](=O)[O-])c1` (configuration not stated) is 49 to 53 °C.
Turning to `CCOC(=O)Cc1ccc(NC(=O)C(COc2cccnc2)NS(=O)(=O)c2ccc(F)cc2)cc1` (racemic), the melting point was 150 to 152 °C.
The figure for `O=C1CC(c2ccccc2)(c2ccncc2)Oc2ccccc21` (configuration not stated) is 123 to 130 °C.
Molecule `C#CCn1c2c(c3ccccc31)CCCC2` returned a melting point of 74 to 76 °C.
`CCC1c2cccn2-c2ccc(C(F)(F)F)cc2N1S(=O)(=O)c1ccc(OC)c(Cl)c1` (configuration not stated) displayed a melting point of 126 to 129 °C.
Regarding `CCn1cc(C(=O)NCc2ccc(Cl)cc2)c(=O)c2cc(CN(C)C[C@@H](O)c3ccco3)sc21`, the melting point was 123 to 127 °C.
The molecule `CCc1c(Br)c2ccccn2c1C(=O)c1ccc(O)cc1` gave a melting point of 160 to 162 °C.
For the molecule `BrCc1ccc2c(c1)C1(c3ccccc3-2)c2ccccc2-c2ccc(CBr)cc21`, the melting point was 175 to 177 °C.
On to `Nc1ccc(OC2(c3ccccc3)CCN(Cc3ccccc3)CC2)cc1`, for which the melting point was 124 to 126 °C.
`O=CNC1Cc2cc(Br)cc([N+](=O)[O-])c2NC1=O` (configuration not stated): the melting point lay in the range of 232 to 235 °C.
In turn, `Nc1ccccc1OCc1nc(Cl)ccc1Cl` yielded a melting point of 74 to 75 °C.
`O=Cc1cc([N+](=O)[O-])cc(O)c1O` displayed a melting point of 226 to 228 °C.
`Cc1ccc(-n2c(=O)c3c(N4CCNCC4)cc(Cl)cc3n(Cc3ccccc3)c2=O)cc1` came in with a melting point of 120 to 124 °C.
`CCOC(=O)/C=C/c1ccc(OCOC)c(C)c1OCc1ccc(Cl)cc1Cl` had a melting point of 110 to 112 °C.
`CCCCSc1ccc(/C=C\C(C)=O)cc1[N+](=O)[O-]` yielded a melting point of 100 °C.
`Nc1ccc2ncnc(Nc3ccc(Oc4ccccc4)cc3)c2c1` registered a melting point of 89 to 90 °C.
With `NC(=O)N1CCC[C@@H]1C#CCN1CCCC1`, the melting point lay in the range of 117 to 122 °C.

Usually melting point stands for the temperature, or range, at which the solid turns liquid.
